# Values quoted from earlier work, collected in US7713553B2, “Method of manufacture of a liquid pesticide containing copper and a liquid pesticide containing copper” (Genics Inc., priority 2001, dated 2010).
compound,measurement,value
[Cu+2].[OH-].[OH-] [copper hydroxide],solubility in water,almost insoluble
